From patent US8178506B2, “Oligomeric compounds and compositions for use in modulation of small non-coding RNAs” (Regulus Therapeutics Inc., priority 2003, dated 2012)
In the oligonucleotide strings, read from the 5' end, every base follows the letter of its sugar. An asterisk marks phosphorothioate; unmarked linkages are phosphodiester. Other units and linkages are bracketed, terminal groups are in braces. A string of capitals states the bases alone. e = 2'-O-(2-methoxyethyl) (MOE); [5mC] = 5-methylcytosine

How the values were obtained:
[1] = system: HSL; assay: HSL mRNA expression in adipocytes (real-time PCR); assay type: cell-based, human; conditions: for HSL mRNA: differentiating adipocytes transfected with oligomeric compound; for HSL (mRNA expression): adipocytes, 250 nM oligomeric compound, day nine post-transfection, relative to control (1.0)
[2] = system: PPARγ; assay: PPARγ mRNA expression in adipocytes (real-time PCR); assay type: cell-based, human; conditions: for PPAR gamma mRNA: differentiating adipocytes transfected with oligomeric compound; for PPAR gamma (mRNA expression): adipocytes, 250 nM oligomeric compound, day nine post-transfection, relative to control (1.0)
[3] = system: aP2; assay: aP2 mRNA expression in adipocytes (real-time PCR); assay type: cell-based, human; conditions: for AP2 mRNA: differentiating adipocytes transfected with oligomeric compound; for AP2 (mRNA expression): adipocytes, 250 nM oligomeric compound, day nine post-transfection, relative to control (1.0)
[4] = system: adipocytes; assay: Triglyceride accumulation assay in adipocytes; assay type: cell-based, human
[5] = system: Glut4; assay: Glut4 mRNA expression in adipocytes (real-time PCR); assay type: cell-based, human; conditions: for GLUT4 mRNA: differentiating adipocytes transfected with oligomeric compound; for Glut4 (mRNA expression): adipocytes, 250 nM oligomeric compound, day nine post-transfection, relative to control (1.0)
[6] = system: HuVECs; assay: Endothelial tube formation assay in HuVECs; conditions: 75 nM oligomeric compound
[7] = differentiating adipocytes transfected with oligomeric compound
[8] = adipocytes, 250 nM oligomeric compound, relative to control (1.0), Table 16
[9] = adipocytes, 250 nM oligomeric compound, relative to control (1.0), Table 15

327928 (antisense eA*eA*e[5mC]*e[5mC]*eG*eA*eT*eT*eT*e[5mC]*eA*eG*eA*eT*eG*eG*eT*eG*e[5mC]*eT*eA*eG) [compound 327928]
HSL mRNA [1]: 52 percentage of untreated control (UTC)
PPAR gamma mRNA [2]: 57 percentage of untreated control (UTC)
AP2 mRNA [3]: 77 percentage of untreated control (UTC)
TG (triglyceride accumulation) [4, 7]: 45 percentage of untreated control (UTC)
GLUT4 mRNA [5]: 39 percentage of untreated control (UTC)
% Activity Relative to UTC (tube formation) ([6]; Table 58): 37.0%

327931 (antisense eA*eA*e[5mC]*e[5mC]*eA*eT*eA*e[5mC]*eA*eA*e[5mC]*e[5mC]*eT*eA*e[5mC]*eT*eA*e[5mC]*e[5mC]*eT*e[5mC]*eA) [compound 327931]
HSL (mRNA expression) ([1]; Table 16): 0.99
PPAR gamma (mRNA expression) ([2]; Table 16): 1.56
AP2 (mRNA expression) ([3]; Table 16): 1.00
TG (triglyceride accumulation) [4, 8]: 1.11
Glut4 (mRNA expression) ([5]; Table 16): 1.37
% Activity Relative to UTC (tube formation) ([6]; Table 58): 103.7%

327933 (antisense eA*eA*eG*eG*eG*eA*eT*eT*e[5mC]*e[5mC]*eT*eG*eG*eG*eA*eA*eA*eA*e[5mC]*eT*eG*eG*eA*e[5mC]) [compound 327933]
HSL (mRNA expression) ([1]; Table 15): 1.35
HSL mRNA [1]: 132 percentage of untreated control (UTC)
PPAR gamma (mRNA expression) ([2]; Table 15): 1.52
PPAR gamma mRNA [2]: 100 percentage of untreated control (UTC)
AP2 (mRNA expression) ([3]; Table 15): 1.46
AP2 mRNA [3]: 82 percentage of untreated control (UTC)
TG (triglyceride accumulation) [4, 9]: 1.48
TG (triglyceride accumulation) [4, 7]: 127 percentage of untreated control (UTC)
Glut4 (mRNA expression) ([5]; Table 15): 2.52
GLUT4 mRNA [5]: 127 percentage of untreated control (UTC)
% Activity Relative to UTC (tube formation) ([6]; Table 58): 59.3%

327934 (antisense eG*eG*eT*eA*e[5mC]*eA*eA*eT*e[5mC]*eA*eA*e[5mC]*eG*eG*eT*e[5mC]*eG*eA*eT*eG*eG*eT) [compound 327934]
HSL (mRNA expression) ([1]; Table 15): 1.02
HSL (mRNA expression) ([1]; Table 16): 0.64
PPAR gamma (mRNA expression) ([2]; Table 15): 0.97
PPAR gamma (mRNA expression) ([2]; Table 16): 0.72
AP2 (mRNA expression) ([3]; Table 15): 1.20
AP2 (mRNA expression) ([3]; Table 16): 0.66
TG (triglyceride accumulation) [4, 9]: 0.99
TG (triglyceride accumulation) [4, 8]: 0.62
Glut4 (mRNA expression) ([5]; Table 15): 1.22
Glut4 (mRNA expression) ([5]; Table 16): 0.44
% Activity Relative to UTC (tube formation) ([6]; Table 58): 51.9%

327941 (antisense eA*eA*e[5mC]*e[5mC]*e[5mC]*eA*e[5mC]*e[5mC]*eG*eA*e[5mC]*eA*eG*e[5mC]*eA*eA*eT*eG*eA*eA*eT*eG*eT*eT) [compound 327941]
HSL (mRNA expression) ([1]; Table 15): 1.73
HSL (mRNA expression) ([1]; Table 16): 0.81
PPAR gamma (mRNA expression) ([2]; Table 15): 0.80
PPAR gamma (mRNA expression) ([2]; Table 16): 0.86
AP2 (mRNA expression) ([3]; Table 15): 1.78
AP2 (mRNA expression) ([3]; Table 16): 0.88
TG (triglyceride accumulation) [4, 9]: 1.31
TG (triglyceride accumulation) [4, 8]: 0.42
Glut4 (mRNA expression) ([5]; Table 15): 2.07
Glut4 (mRNA expression) ([5]; Table 16): 0.44
% Activity Relative to UTC (tube formation) ([6]; Table 58): 74.1%

327951 (antisense e[5mC]*eA*e[5mC]*eA*eA*eA*e[5mC]*e[5mC]*eA*eT*eT*eA*eT*eG*eT*eG*e[5mC]*eT*eG*e[5mC]*eT*eA) [compound 327951]
HSL mRNA [1]: 100 percentage of untreated control (UTC)
PPAR gamma mRNA [2]: 84 percentage of untreated control (UTC)
AP2 mRNA [3]: 91 percentage of untreated control (UTC)
TG (triglyceride accumulation) [4, 7]: 76 percentage of untreated control (UTC)
GLUT4 mRNA [5]: 81 percentage of untreated control (UTC)
% Activity Relative to UTC (tube formation) ([6]; Table 59): 73.3%

327954 (antisense eA*e[5mC]*eA*eA*eA*eG*eT*eT*e[5mC]*eT*eG*eT*eG*eA*eT*eG*e[5mC]*eA*e[5mC]*eT*eG*eA) [compound 327954]
HSL (mRNA expression) ([1]; Table 15): 1.03
PPAR gamma (mRNA expression) ([2]; Table 15): 0.73
AP2 (mRNA expression) ([3]; Table 15): 0.95
TG (triglyceride accumulation) [4, 9]: 0.58
Glut4 (mRNA expression) ([5]; Table 15): 0.92
% Activity Relative to UTC (tube formation) ([6]; Table 59): 53.3%

327956 (antisense e[5mC]*eA*e[5mC]*eA*eG*eT*eT*eG*e[5mC]*e[5mC]*eA*eG*e[5mC]*eT*eG*eA*eG*eA*eT*eT*eA) [compound 327956]
HSL mRNA [1]: 90 percentage of untreated control (UTC)
PPAR gamma mRNA [2]: 91 percentage of untreated control (UTC)
AP2 mRNA [3]: 102 percentage of untreated control (UTC)
TG (triglyceride accumulation) [4, 7]: 80 percentage of untreated control (UTC)
GLUT4 mRNA [5]: 69 percentage of untreated control (UTC)
% Activity Relative to UTC (tube formation) ([6]; Table 59): 46.7%

327967 (antisense eA*e[5mC]*eT*eG*eT*eA*e[5mC]*eA*eA*eA*e[5mC]*eT*eA*e[5mC]*eT*eA*e[5mC]*e[5mC]*eT*e[5mC]*eA) [compound 327967]
HSL (mRNA expression) ([1]; Table 16): 0.97
PPAR gamma (mRNA expression) ([2]; Table 16): 0.89
AP2 (mRNA expression) ([3]; Table 16): 0.86
TG (triglyceride accumulation) [4, 8]: 0.90
Glut4 (mRNA expression) ([5]; Table 16): 0.56
% Activity Relative to UTC (tube formation) ([6]; Table 59): 93.3%
